These results are taken from patent publication US10544147B2, “Purine inhibitors of human phosphatidylinositol 3-kinase delta” (MERCK SHARP & DOHME CORP., priority 2016, dated 2020).

One assay concerns the target PI3Kalpha (Homo sapiens (Human), UniProt P42336). The assay is described as follows: HTRF PI3K biochemical assay, alpha isoform (selectivity versus delta). To be noted: ratio PI3K-alpha IC50 value/PI3K-delta IC50 value. The protocol: (§1) HTRF PI3K Biochemical Assay to Measure Intrinsic Potency of Compound Inhibitors
(§2) This loss of signal is nonlinear with respect to both increasing product and time. This non-linear detection will impact accuracy of IC50 calculations; therefore, there is a need for a correction factor to obtain more accurate IC50 values. This correction is derived from a PIP3 standard curve run in a separate assay plate. All data were calculated using the ratio of acceptor (APC) to donor (Europium) fluorescence in each well of the assay plate. […] An IC50 was then calculated fitting the % inhibition data to the equation: % inhibition=min+(Max−min)/1+([inhibitor]/IC50)^n) where min is the % inhibition with inhibitor, max is the signal in DMSO control, and n is the Hill slope.
(§3) The biological data was collected using the methodology described above.
The determination of relative selectivity for a given compound is defined as the relative ratio of the (PI3K-alphaIC50 value/PI3K-delta IC50 value).
Background: TR-FRET usually uses a lanthanide donor and a delayed reading to cut background.

The target of a further assay is PI3Kdelta (Homo sapiens (Human), UniProt O00329). The assay is described as follows: HTRF PI3K biochemical assay, delta isoform. To be noted: 0.3 nM enzyme, 100 uM ATP, 50 uM PIP2; form screened (neutral or TFA salt). The protocol:
as §1, §2, §3

pIC50: −log10 of the molar value. Where only a bound is given, the exact number is not on record here.

Sequence of PI3Kdelta (O00329 whole entry, canonical isoform): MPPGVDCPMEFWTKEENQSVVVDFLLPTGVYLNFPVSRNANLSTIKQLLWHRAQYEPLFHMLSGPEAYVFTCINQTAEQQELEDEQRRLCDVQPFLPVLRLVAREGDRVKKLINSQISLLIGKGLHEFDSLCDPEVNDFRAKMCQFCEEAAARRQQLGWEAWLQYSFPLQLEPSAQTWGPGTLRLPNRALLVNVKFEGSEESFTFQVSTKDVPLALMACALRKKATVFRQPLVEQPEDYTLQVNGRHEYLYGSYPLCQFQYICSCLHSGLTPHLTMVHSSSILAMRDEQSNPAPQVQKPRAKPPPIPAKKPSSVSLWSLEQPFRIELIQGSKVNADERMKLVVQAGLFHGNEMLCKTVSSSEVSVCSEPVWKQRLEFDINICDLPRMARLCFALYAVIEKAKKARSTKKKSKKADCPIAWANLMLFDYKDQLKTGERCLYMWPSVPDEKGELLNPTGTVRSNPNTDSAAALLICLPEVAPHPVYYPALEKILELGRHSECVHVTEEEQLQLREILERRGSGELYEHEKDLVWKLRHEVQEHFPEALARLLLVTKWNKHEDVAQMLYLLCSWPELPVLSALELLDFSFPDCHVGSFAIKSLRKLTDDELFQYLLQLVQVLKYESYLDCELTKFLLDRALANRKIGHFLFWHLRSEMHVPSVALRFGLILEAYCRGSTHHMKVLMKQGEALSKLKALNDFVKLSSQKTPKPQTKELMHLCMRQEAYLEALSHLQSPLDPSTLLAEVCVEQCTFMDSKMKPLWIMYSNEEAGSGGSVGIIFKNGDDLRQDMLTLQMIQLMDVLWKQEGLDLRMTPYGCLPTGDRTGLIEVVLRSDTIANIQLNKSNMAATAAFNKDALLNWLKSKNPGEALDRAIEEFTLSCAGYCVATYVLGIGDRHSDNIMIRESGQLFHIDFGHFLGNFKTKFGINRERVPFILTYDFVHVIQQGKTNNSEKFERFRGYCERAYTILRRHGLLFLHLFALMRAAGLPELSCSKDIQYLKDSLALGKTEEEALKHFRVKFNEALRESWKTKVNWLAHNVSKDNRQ
Sequence of PI3Kdelta (P27986 whole entry partner, canonical isoform): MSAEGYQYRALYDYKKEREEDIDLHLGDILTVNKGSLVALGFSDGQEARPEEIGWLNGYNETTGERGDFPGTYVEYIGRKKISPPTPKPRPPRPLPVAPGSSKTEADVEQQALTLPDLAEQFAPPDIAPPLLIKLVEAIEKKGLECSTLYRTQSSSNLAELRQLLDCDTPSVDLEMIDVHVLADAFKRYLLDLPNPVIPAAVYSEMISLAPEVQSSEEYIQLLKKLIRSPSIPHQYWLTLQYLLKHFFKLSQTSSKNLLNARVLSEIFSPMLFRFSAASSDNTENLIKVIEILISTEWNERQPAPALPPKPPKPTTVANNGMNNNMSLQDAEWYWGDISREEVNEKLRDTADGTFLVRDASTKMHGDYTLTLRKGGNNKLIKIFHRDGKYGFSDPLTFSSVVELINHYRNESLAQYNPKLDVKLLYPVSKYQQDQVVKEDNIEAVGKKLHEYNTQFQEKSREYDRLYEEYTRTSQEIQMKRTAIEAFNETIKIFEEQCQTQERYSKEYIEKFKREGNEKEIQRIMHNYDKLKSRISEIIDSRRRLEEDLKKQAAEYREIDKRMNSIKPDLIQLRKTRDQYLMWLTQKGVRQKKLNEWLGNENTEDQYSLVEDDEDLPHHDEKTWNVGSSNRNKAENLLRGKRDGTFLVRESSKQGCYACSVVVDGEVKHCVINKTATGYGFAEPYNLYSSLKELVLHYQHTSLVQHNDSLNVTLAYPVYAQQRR
Sequence of PI3Kalpha (P42336 whole entry, canonical isoform): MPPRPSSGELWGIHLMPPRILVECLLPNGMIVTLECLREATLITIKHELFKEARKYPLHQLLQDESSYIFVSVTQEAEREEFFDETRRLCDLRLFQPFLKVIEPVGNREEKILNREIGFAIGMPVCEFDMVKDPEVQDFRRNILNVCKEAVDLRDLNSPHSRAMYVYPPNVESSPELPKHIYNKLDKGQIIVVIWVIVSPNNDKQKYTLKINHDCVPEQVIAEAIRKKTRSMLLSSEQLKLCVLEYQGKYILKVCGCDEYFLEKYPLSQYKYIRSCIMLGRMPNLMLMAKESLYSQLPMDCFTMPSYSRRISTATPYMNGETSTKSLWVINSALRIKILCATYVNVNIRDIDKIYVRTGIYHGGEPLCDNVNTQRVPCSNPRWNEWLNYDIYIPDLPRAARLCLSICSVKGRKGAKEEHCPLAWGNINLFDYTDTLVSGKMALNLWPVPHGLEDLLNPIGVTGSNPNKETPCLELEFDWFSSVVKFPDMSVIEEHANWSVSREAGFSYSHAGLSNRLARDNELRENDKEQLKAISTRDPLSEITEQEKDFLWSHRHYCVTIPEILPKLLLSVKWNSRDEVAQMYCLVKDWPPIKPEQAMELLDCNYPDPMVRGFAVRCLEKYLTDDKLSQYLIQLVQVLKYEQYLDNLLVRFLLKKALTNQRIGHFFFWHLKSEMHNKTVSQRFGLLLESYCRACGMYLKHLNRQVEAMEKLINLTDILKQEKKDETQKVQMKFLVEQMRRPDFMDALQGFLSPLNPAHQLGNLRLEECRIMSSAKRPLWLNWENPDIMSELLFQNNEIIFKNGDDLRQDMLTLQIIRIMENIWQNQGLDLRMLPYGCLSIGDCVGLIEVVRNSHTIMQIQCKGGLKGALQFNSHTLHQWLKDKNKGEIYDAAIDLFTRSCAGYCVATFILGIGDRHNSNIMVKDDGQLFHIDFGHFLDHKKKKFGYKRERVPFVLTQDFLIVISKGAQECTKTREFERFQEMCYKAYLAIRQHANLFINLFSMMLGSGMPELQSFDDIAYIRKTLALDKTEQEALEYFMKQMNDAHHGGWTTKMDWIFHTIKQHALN
Sequence of PI3Kalpha (P27986 whole entry partner, canonical isoform): as the sequence (P27986 whole entry partner, canonical isoform) above

As to `CCn1c(-c2cnc(C)nc2)nc2c(-c3cnc4c(c3)C(C)(CC3CC3)C(=O)N4)ncnc21` (single isomer, unassigned) [Compound 1-14, (R or S)-3-(cyclopropylmethyl)-5-(9-ethyl-S-(2-methylpyrimidin-5-yl)-9H-purin-6-yl)-3-methyl-1,3-dihydro-2H-pyrrolo[2,3-b]pyridin-2-one], at PI3Kalpha, the “Relative Selectivity versus PI3Kalpha” value is above 10. For the same molecule, at PI3Kdelta, the pIC50 was 7.80.

For the molecule `CCn1c(-c2cnc(C)nc2)nc2c(-c3cnc4c(c3)C(C)(CC3CC3)C(=O)N4)ncnc21` (single isomer, unassigned) [Compound 1-15, (R or S)-3-(cyclopropylmethyl)-5-(9-ethyl-8-(2-methylpyrimidin-5-yl)-9H-purin-6-yl)-3-methyl-1,3-dihydro-2H-pyrrolo[2,3-b]pyridin-2-one], on PI3Kalpha, the “Relative Selectivity versus PI3Kalpha” value is reported as above 10. Further, the pIC50 on PI3Kdelta is 6.65.

Take `CCn1c(-c2cnc(C)nc2)nc2c(-c3ccc4c(c3)C(C)(Cc3ccccc3)C(=O)N4C)ncnc21` (single isomer, unassigned) [Compound 1-20, 3-Benzyl-5-(9-ethyl-8-(2-methylpyrimidin-5-yl)-9H-purin-6-yl)-1,3-dimethylindolin-2-one]: at PI3Kalpha, the “Relative Selectivity versus PI3Kalpha” value came out at 3. Also, on PI3Kdelta, the pIC50 was 6.32.

Turning to `CCn1c(-c2cnc(C)nc2)nc2c(-c3ccc4c(c3)C(C)(Cc3ccccc3)C(=O)N4C)ncnc21` (single isomer, unassigned) [Compound 1-21, 3-Benzyl-5-(9-ethyl-8-(2-methylpyrimidin-5-yl)-9H-purin-6-yl)-1,3-dimethylindolin-2-one], on PI3Kalpha, the “Relative Selectivity versus PI3Kalpha” value is above 10. Also, at PI3Kdelta, the pIC50 is 8.40.

For the molecule `CCn1c(C(F)F)nc2c(-c3ccc4c(c3)C(C)(Cc3ccccc3)C(=O)N4)ncnc21` (single isomer, unassigned) [Compound 1-23, (R or S)-benzyl-5-(8-(difluoromethyl)-9-ethyl-9H-purin-6-yl)-3-methylindolin-2-one], the “Relative Selectivity versus PI3Kalpha” value on PI3Kalpha is above 10. Further, the pIC50 at PI3Kdelta is 7.57.

For `CCn1c(C(F)F)nc2c(-c3ccc4c(c3)C(C)(Cc3ccccc3)C(=O)N4)ncnc21` (single isomer, unassigned) [Compound 1-24, (R or S)-benzyl-5-(8-(difluoromethyl)-9-ethyl-9H-purin-6-yl)-3-methylindolin-2-one], the “Relative Selectivity versus PI3Kalpha” value at PI3Kalpha is above 10. For the same molecule, at PI3Kdelta, the pIC50 is 6.18.

As for `CCn1ncc(-c2nc3c(-c4ccc5c(c4)C(C)(CC4CC4)C(=O)N5)ncnc3n2CC)c1C` (single isomer, unassigned) [Compound 1-25, 3-(Cyclopropylmethyl)-5-(9-ethyl-8-(1-ethyl-5-methyl-1H-pyrazol-4-yl)-9H-purin-6-yl)-3-methylindolin-2-one], the “Relative Selectivity versus PI3Kalpha” value on PI3Kalpha was above 10. Also, the pIC50 on PI3Kdelta was 8.40.

For the molecule `Cc1ncc(-c2nc3c(-c4cnc5c(c4)C(C)(CC(C)C)C(=O)N5)ncnc3n2C)cn1` (single isomer, unassigned) [Compound 1-26, (R or S)-3-isobutyl-3-methyl-5-(9-methyl-8-(2-methylpyrimidin-5-yl)-9H-purin-6-yl)-1,3-dihydro-2H-pyrrolo[2,3-b]pyridin-2-one], on PI3Kalpha, the “Relative Selectivity versus PI3Kalpha” value is reported as above 10. In addition, on PI3Kdelta, the pIC50 is 7.30.

For the molecule `Cc1ncc(-c2nc3c(-c4cnc5c(c4)C(C)(CC(C)C)C(=O)N5)ncnc3n2C)cn1` (single isomer, unassigned) [Compound 1-27, (R or S)-3-isobutyl-3-methyl-5-(9-methyl-8-(2-methylpyrimidin-5-yl)-9H-purin-6-yl)-1,3-dihydro-2H-pyrrolo[2,3-b]pyridin-2-one], the “Relative Selectivity versus PI3Kalpha” value on PI3Kalpha was above 10. Besides, the pIC50 at PI3Kdelta was 8.30.

For the molecule `CCn1c(-c2cnc(C)nc2)nc2c(-c3ccc4c(c3)C(C)(C3CCOCC3)C(=O)N4)ncnc21` (single isomer, unassigned) [Compound 1-34, 5-(9-Ethyl-8-(2-methylpyrimidin-5-yl)-9H-purin-6-yl)-3-methyl-3-(tetrahydro-2H-pyran-4-yl)indolin-2-one], the “Relative Selectivity versus PI3Kalpha” value at PI3Kalpha came to 8. Besides, the pIC50 at PI3Kdelta is 7.32.

With `CCn1c(-c2cnc(C)nc2)nc2c(-c3ccc4c(c3)C(C)(C3CCOCC3)C(=O)N4)ncnc21` (single isomer, unassigned) [Compound 1-35, 5-(9-Ethyl-8-(2-methylpyrimidin-5-yl)-9H-purin-6-yl)-3-methyl-3-(tetrahydro-2H-pyran-4-yl)indolin-2-one], the “Relative Selectivity versus PI3Kalpha” value at PI3Kalpha is reported as above 10. Moreover, at PI3Kdelta, the pIC50 is 8.30.

`CCn1c(-c2cnc(C)nc2)nc2c(-c3ccc4c(c3)C(C)(CC)C(=O)N4)ncnc21` (single isomer, unassigned) [Compound 1-38, (R or S)-3-ethyl-5-(9-ethyl-8-(2-methylpyrimidin-5-yl)-9H-purin-6-yl)-3-methylindolin-2-one]: on PI3Kalpha, the “Relative Selectivity versus PI3Kalpha” value is above 10. On PI3Kdelta, the pIC50 was 7.10.

For the molecule `CCn1c(-c2cnc(C)nc2)nc2c(-c3ccc4c(c3)C(C)(CC)C(=O)N4)ncnc21` (single isomer, unassigned) [Compound 1-39, (R or S)-3-ethyl-5-(9-ethyl-8-(2-methylpyrimidin-5-yl)-9H-purin-6-yl)-3-methylindolin-2-one], the “Relative Selectivity versus PI3Kalpha” value on PI3Kalpha is above 10. Also, the pIC50 on PI3Kdelta is 7.07.

Take `CCn1c(-c2cnc(C)nc2)nc2c(-c3ccc4c(c3)C(C)(CC(C)(C)O)C(=O)N4)ncnc21` (single isomer, unassigned) [Compound 1-40, 5-(9-Ethyl-8-(2-methylpyrimidin-5-yl)-9H-purin-6-yl)-3-(2-hydroxy-2-methylpropyl)-3-methylindolin-2-one]: at PI3Kalpha, the “Relative Selectivity versus PI3Kalpha” value is on record as above 10. Besides, on PI3Kdelta, the negative logarithm of the IC50 (pIC50) is 6.85.

As to `CCn1c(-c2cnc(C)nc2)nc2c(-c3ccc4c(c3)C(C)(CC(C)(C)O)C(=O)N4)ncnc21` (single isomer, unassigned) [Compound 1-41, 5-(9-Ethyl-8-(2-methylpyrimidin-5-yl)-9H-purin-6-yl)-3-(2-hydroxy-2-methylpropyl)-3-methylindolin-2-one], the “Relative Selectivity versus PI3Kalpha” value on PI3Kalpha is above 10. Also, the pIC50 on PI3Kdelta was 7.64.

Turning to `CCn1c(-c2cnc(C)nc2)nc2c(-c3ccc4c(c3)C(C)(N3C[C@@H](C)O[C@@H](C)C3)C(=O)N4)ncnc21` (single isomer, unassigned) [Compound 2-3, (R or S)-3-[(cis)-2,6-dimethylmorpholin-4-yl]-5-[9-ethyl-8-(2-methylpyrimidin-5-yl)-9H-purin-6-yl]-3-methyl-1,3-dihydro-2H-indol-2-one], the “Relative Selectivity versus PI3Kalpha” value at PI3Kalpha is recorded as 4. The pIC50 on PI3Kdelta was 6.84.

As to `CCn1c(-c2cnc(C)nc2)nc2c(-c3ccc4c(c3)C(C)(N3C[C@@H](C)O[C@@H](C)C3)C(=O)N4)ncnc21` (single isomer, unassigned) [Compound 2-4, (R or S)-3-[(cis)-2,6-dimethylmorpholin-4-yl]-5-[9-ethyl-8-(2-methylpyrimidin-5-yl)-9H-purin-6-yl]-3-methyl-1,3-dihydro-2H-indol-2-one], at PI3Kalpha, the “Relative Selectivity versus PI3Kalpha” value was above 10. Besides, the pIC50 at PI3Kdelta is 8.30.

As a reminder, the pIC50 is −log10 of the IC50, conventionally taken in molar units.
